In ChEMBL document CHEMBL3886554, “Ring-fused bicyclic pyridyl derivatives as FGFR4 inhibitors” (2016):

Biological target: Fibroblast growth factor receptor 4 (Homo sapiens, UniProt P22455)
Experiment: Biochemical Kinase Assay: Liquid handling and incubation steps were done on an Innovadyne Nanodrop Express equipped with a robotic arm (Thermo CatX, Caliper Twister II) and an incubator (Liconic STX40, Thermo Cytomat 2C450). The assay plates were prepared by addition of 50 nl per well of compound solution in 90% DMSO. The kinase reactions were started by stepwise addition of 4.5 ul per well of …

Fibroblast growth factor receptor 4, sequence (P22455 whole entry): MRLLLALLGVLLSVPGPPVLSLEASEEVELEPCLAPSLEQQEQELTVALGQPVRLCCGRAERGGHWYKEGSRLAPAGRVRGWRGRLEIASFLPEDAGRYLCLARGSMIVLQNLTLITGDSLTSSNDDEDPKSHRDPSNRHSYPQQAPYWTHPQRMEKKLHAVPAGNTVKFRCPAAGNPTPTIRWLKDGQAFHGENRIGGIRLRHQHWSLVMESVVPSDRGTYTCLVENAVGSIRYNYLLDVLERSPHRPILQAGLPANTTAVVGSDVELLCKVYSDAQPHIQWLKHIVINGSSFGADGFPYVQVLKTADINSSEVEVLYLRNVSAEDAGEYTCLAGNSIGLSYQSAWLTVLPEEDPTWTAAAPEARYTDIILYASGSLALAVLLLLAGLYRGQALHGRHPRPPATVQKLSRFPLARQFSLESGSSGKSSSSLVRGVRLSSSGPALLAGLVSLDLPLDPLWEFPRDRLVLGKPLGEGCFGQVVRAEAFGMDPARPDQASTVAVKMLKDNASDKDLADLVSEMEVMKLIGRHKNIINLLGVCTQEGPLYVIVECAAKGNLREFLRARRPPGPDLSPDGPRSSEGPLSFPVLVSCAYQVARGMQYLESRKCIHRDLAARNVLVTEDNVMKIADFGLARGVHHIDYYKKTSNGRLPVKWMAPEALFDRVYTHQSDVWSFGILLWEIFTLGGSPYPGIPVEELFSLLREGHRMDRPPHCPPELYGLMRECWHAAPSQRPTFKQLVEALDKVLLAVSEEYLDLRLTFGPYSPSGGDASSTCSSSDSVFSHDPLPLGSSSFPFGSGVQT

**Q.** For `CC(C)Oc1cc(NC(=O)N2CCCc3cc(CN(C)C(=O)CO)c(C=O)nc32)ncc1C#N`, which IC50 is on record?
**A.** The IC50 was 0.3 nM.
